Results published in PubChem BioAssay (NCI).
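Briefly, cells in 96-well plates were exposed to five compound concentrations for 48 h, and endpoints were estimated by linear interpolation. TGI marks complete inhibition of growth.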

Experiments:
Assay in all cases: NCI anticancer screen, dose series, 48 h
CCRF-CEM leukemia = tested on: CCRF-CEM leukemia
HOP-62 NSCLC = tested on: HOP-62 NSCLC
HS 578T breast = tested on: HS 578T breast
HT29 colon = tested on: HT29 colon
KM20L2 colon = tested on: KM20L2 colon
LOX IMVI melanoma = tested on: LOX IMVI melanoma
M14 melanoma = tested on: M14 melanoma
MALME-3M melanoma = tested on: MALME-3M melanoma
MCF7 breast = tested on: MCF7 breast
NCI-H522 lung = tested on: NCI-H522 lung
OVCAR-4 ovarian = tested on: OVCAR-4 ovarian
OVCAR-8 ovarian = tested on: OVCAR-8 ovarian
SF-539 CNS = tested on: SF-539 CNS
SK-MEL-28 melanoma = tested on: SK-MEL-28 melanoma
SK-OV-3 ovarian = tested on: SK-OV-3 ovarian
SNB-19 CNS = tested on: SNB-19 CNS
SNB-75 CNS = tested on: SNB-75 CNS
SNB-78 CNS = tested on: SNB-78 CNS
SW-620 colon = tested on: SW-620 colon
UACC-62 melanoma = tested on: UACC-62 melanoma

| SMILES | TGI (CCRF-CEM leukemia) | TGI (HOP-62 NSCLC) | TGI (HS 578T breast) | TGI (HT29 colon) | TGI (KM20L2 colon) | TGI (LOX IMVI melanoma) | TGI (M14 melanoma) | TGI (MALME-3M melanoma) | TGI (MCF7 breast) | TGI (NCI-H522 lung) | TGI (OVCAR-4 ovarian) | TGI (OVCAR-8 ovarian) | TGI (SF-539 CNS) | TGI (SK-MEL-28 melanoma) | TGI (SK-OV-3 ovarian) | TGI (SNB-19 CNS) | TGI (SNB-75 CNS) | TGI (SNB-78 CNS) | TGI (SW-620 colon) | TGI (UACC-62 melanoma) |
| --- | --- | --- | --- | --- | --- | --- | --- | --- | --- | --- | --- | --- | --- | --- | --- | --- | --- | --- | --- | --- |
| CCN(CC)c1ccc(/C=C2/C[N+](C)(C)C/C(=C/c3ccc(N(CC)CC)cc3)C2=O)cc1 | 3.42 µM | 40.7 µM | 11.2 µM | 5.2 µM | 12.9 µM | 6.16 µM | 7.07 µM | 4.38 µM | 6.04 µM | 7.74 µM | 13.8 µM | 14.7 µM | 6.19 µM | 4.09 µM | > 78.5 µM | 19.4 µM | 8.88 µM | 9.62 µM | 13.5 µM | 4.84 µM |
| CCOc1ccc(NC(=O)C(=O)NO)cc1 | > 100 µM | > 100 µM |  | > 100 µM | > 100 µM | > 100 µM | > 100 µM | > 100 µM |  | > 100 µM | > 100 µM | > 100 µM | > 100 µM | > 100 µM | > 100 µM | > 100 µM | > 100 µM | > 100 µM | > 100 µM | > 100 µM |
| CCCCCCCc1cc(OC(=O)c2c(C)cc(OC)cc2O)cc(O)c1C(=O)O | 78.6 µM | 35.2 µM |  | > 100 µM | 40.3 µM | 48.7 µM | 36.6 µM | 37.6 µM |  | 48.3 µM | 78.2 µM | 77.9 µM | 32.6 µM | 38.7 µM | 69.2 µM | 58.3 µM | 36.1 µM | > 100 µM | 64.5 µM | 43.7 µM |
